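1) Cells in 96-well plates. 2) Compound, 48 h, 5 concentrations. 3) Linear interpolation between surrounding doses. 4) Unreached endpoint = highest concentration. GI50 marks 50% less growth. TGI is the concentration that stops growth completely.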

The source of these data is PubChem BioAssay (NCI).

Holding throughout (experiment): growth of human tumour cells (NCI), 48 h
The test system of assay [1] is NCI-H522 lung.
Assay [2] relates to SR leukemia.
Assay [3] relates to LOX IMVI melanoma.
In assay [4] the test system is HOP-62 NSCLC.
The subject of assay [5] is U251 CNS.
Assay [6] concerns COLO 205 colon.
Assay [7] concerns SF-268 CNS.
The test system of assay [8] is SN12C renal.
Assay [9] deals with SNB-75 CNS.
The subject of assay [10] is RXF 393 renal.

For `COc1ncnc(C2CC2)c1-c1ncc2cnn(Cc3ccc(-c4nc(C(F)(F)F)cn4C(C)C)cc3)c2n1`, the GI50 is 8.52 µM in [1]; 19.7 µM in assay [2]; 14.8 µM in [3]; 25.6 µM in assay [4]; 25.7 µM in [5]; 23.5 µM in assay [6]. Besides, the GI50 was 16.2 µM in assay [7], 18.6 µM in [8], 5.36 µM in assay [9] and 6.5 µM in assay [10]. In addition, the TGI is 48.3 µM in assay [1]; over 100 µM in [2]; 31.7 µM in [3]; over 100 µM in assay [4]; over 100 µM in [5]; 89.4 µM in [6]. In addition, the TGI in [7] was 80.9 µM; in assay [8] it was over 100 µM; in [9] it was 53.6 µM; in assay [10], 39.8 µM.

For the compound `O=C(Nc1nc2ncn(CCI)c2c(=O)[nH]1)c1ccccc1`, the TGI was over 100 µM in assay [1]; over 100 µM in [2]; over 100 µM in assay [3]; over 81.1 µM in assay [4]; over 96.5 µM in [5]; over 100 µM in assay [6]. Also, the TGI in assay [7] is 50.3 µM; in assay [8], over 100 µM; in assay [9], 46.4 µM; in assay [10], 59.3 µM.

As to `CCN1CCN(c2ccc(Nc3cc(N(C)C(=O)Nc4c(Cl)c(OC)cc(OC)c4Cl)ncn3)cc2)CC1`, the GI50 is 5.21 µM in assay [1]; 2.02 µM in [2]; 1.48 µM in assay [3]; 4.03 µM in assay [4]; 1.47 µM in [5]; 1.93 µM in assay [6]. Besides, the GI50 was 2.41 µM in [7], 2.62 µM in assay [8], 5.23 µM in assay [9] and 1.13 µM in [10]. The TGI came out at 10.9 µM in assay [1]; 4.63 µM in [2]; 2.91 µM in [3]; 15.5 µM in [4]; 3.71 µM in [5]; 3.47 µM in assay [6]. The TGI is 28 µM in [7], 11 µM in assay [8], 22.2 µM in [9] and 2.72 µM in assay [10].

On to `C=C(CCCCC)CN1CCCC1[C@@](C)(O)CC(=O)OCC` (stereo not given in full), for which the TGI in assay [1], in assay [2], in assay [3], in assay [4], in assay [5] and in assay [6] was over 100 µM throughout. Also, the TGI in [7], in [8], in [9] and in assay [10] was over 100 µM in each case.

On to `CCCCOC(=O)C1C(c2ccc(Cl)cc2)NC(c2ccc(Cl)cc2)C(C(=O)OCCCC)S1(=O)=O` (stereo not given), for which the TGI in assay [1], in assay [2], in [3], in assay [4], in assay [5] and in assay [6] was over 100 µM in each case. Besides, the TGI in [7], in assay [8], in assay [9] and in assay [10] was over 100 µM in each case.

Regarding `COc1ccc(C2S/C(=C\c3ccccc3O)C(=O)N2NC(=O)Cc2ccccc2)cc1` (stereo not given), the TGI in assay [1], in assay [2], in assay [3], in assay [4], in assay [5] and in assay [6] was over 100 µM in each case. The TGI in assay [7], in assay [8], in assay [9] and in assay [10] was over 100 µM throughout.

With `COC(=O)C12C3C4C1C1C2C3C41C(=O)OC(C)(C)C` (stereo not given), the TGI in assay [1] was over 100 µM; in assay [2] it was 44.1 µM; in assay [3], over 61.2 µM; in assay [4], over 100 µM; in assay [5], over 100 µM; in [6], over 100 µM. Moreover, the TGI in assay [7], in assay [8], in [9] and in assay [10] was over 100 µM in each case.

With `O=C1CCCC/C(=C/c2ccccc2)N1`, the TGI in assay [1], in assay [2], in [3], in assay [4], in [5] and in [6] was over 100 µM in each case. For the same compound, the TGI in assay [7], in assay [8], in assay [9] and in assay [10] was over 100 µM throughout.

Regarding `C=C(C=O)C1CCC2(C(=O)O)CCC3(C)C(CCC4C5(C)CCC(O)C(C)(C)C5CCC43C)C12` (stereo not given), the GI50 in [1] was 1.96 µM; in [2] it was 2.23 µM; in [3], 1.57 µM; in assay [4], 4.93 µM; in assay [5], 1.64 µM; in [6] it was 2.64 µM. In addition, the GI50 in assay [7] was 2.15 µM; in [8], 4.09 µM; in [9] it was 10.8 µM; in [10] it was 1.34 µM. In addition, the TGI in assay [1] is 5 µM; in assay [2], over 100 µM; in assay [3] it was 3.11 µM; in [4] it was 19.7 µM; in assay [5], 3.74 µM; in [6] it was 6.18 µM. Besides, the TGI was 10.5 µM in [7], over 89.9 µM in assay [8], 32.6 µM in assay [9] and 2.99 µM in assay [10].

Take `C=C(C=O)[C@@H]1C2OC(=O)C(=C)[C@@H]2CC(O)[C@@]1(C)CC` (stereo not given in full): the TGI in assay [1] was 4.52 µM; in assay [2], 12.3 µM; in assay [3] it was 34.7 µM; in assay [4], over 100 µM; in assay [5] it was 32.4 µM; in assay [6], 11.7 µM. The TGI in assay [7] is 71.4 µM; in assay [8] it was 32.6 µM; in assay [9], over 100 µM; in assay [10], 10.3 µM.

With `Oc1ccc(Cl)cc1Cc1cc(Cl)cc(Cl)c1O`, the GI50 in assay [1] was 3.43 µM; in assay [2], 5.02 µM; in assay [3] it was 4.83 µM; in [4] it was 3.68 µM; in [5], 5.12 µM; in assay [6], 19.5 µM. In addition, the GI50 in assay [7] is 3.82 µM; in [8], 3.7 µM; in [9], 5.14 µM; in assay [10], 2.54 µM. Besides, the TGI in [1] was 13.2 µM; in assay [2] it was 27.4 µM; in assay [3], 19.2 µM; in [4], 21 µM; in [5] it was 50.9 µM; in assay [6] it was 36.6 µM. Moreover, the TGI in assay [7] is 57.9 µM; in assay [8], 21.8 µM; in [9] it was 40.8 µM; in assay [10], 8.54 µM.
